The test system of assay [1] is Lipid peroxidation in rat brain homogenates. Briefly: Lipid peroxidation assay (ascorbic acid-induced, TBA/MDA readout). In kind it is biochemical. Particulars: concentration required to inhibit lipid peroxidation by 50%; rat cortex preparation, 500-µM L-ascorbic acid, 37 °C, 30 min. The protocol: Lipid peroxidation in rat brain homogenates is a general procedure used to measure the antioxidant capacity of molecules in a biological environment (Das N.P. and Ratty A.K., Biochem. Med. Metab. Biol, 1987, 37, 256-264).
Rat cortex was homogenised in 20 vols. of ice cold 0.32-M sucrose and centrifuged at 1,000 g for 10 min. The pellet was discarded whilst the resulting supernatant was centrifuged at 15,000 g for 20 min at 4 °C to yield p2 pellets. The pellet was re-suspended in ice-cold 50.0-mM phosphate buffer and centrifuged at 30,000 g for 20 min at 4 °C. The pellet was re-suspended in 30 vols. of 50.0-mM phosphate buffer and used immediately in the assay.
Assays contained 500-µM L-ascorbic acid to induce lipid peroxidation, plus various concentrations of test compound, with the tissue preparation in a total volume of 500 µL. This was incubated at 37 °C for 30 min. Lipid peroxidation was measured by adding to the reaction mixture, 300 µL 40 % (w/v) trichloroacetic acid, 150 µL 5.0-M HCl and 300 µL 2 % (w/v) 2-thiobarbituric acid (TBA). […] The pink colour of the supernatant was assessed spectrophotometrically at a wavelength of 532 nm. The amount of malondialdehyde (MDA) in the samples was calculated using a standard curve prepared with malondialdehyde tetrabutylammonium salt (Das, N.P. and Ratty, A.K. Biochem. Med. Metab. Biol. (1987), 37, 256-264). […]

Assay [2] relates to cerebellar granule cell (CGC) cultures. Briefly: Iodoacetate induced cell toxicity in culture (cell death, MTT-reductase activity). In kind it is cell-based. The settings on record: protection of CGC after 30-µM IAA for 30 min (with 10-µM MK-801), 24 hour incubation with test compound. On the procedure: After 6-8 days in culture, cerebellar granule cell (CGC) cultures in 96-well plates (250,000 cells per well) were prepared for hypoglycaemia. lodoacetate (IAA) was made up in a balanced salt solution (BSS) (NaCl, 154.0-mM; KCl, 5.6-mM; MgCl2, 1.0-mM; CaCl2, 2.5-mM; N-[2-hydroxyethyl]piperazine-N'-[2-ethanesulfonic acid] (HEPES), 10.0-mM; D-glucose, 5.6-mM; pH 7.4) and any neuroprotective agents were made up in pre-warmed tissue culture media and allowed to equilibrate in a controlled environment (5 % CO2, 95 % air). The assay was initiated by aspiration of the maintenance media, which was replaced by either BSS (control) or 30-µM IAA in BSS, both solutions containing 10-µM of the NMDA receptor antagonist MK-801. The exposure to IAA was for 30 min only at 37 °C, after which time the BSS was aspirated and replaced with fresh, pre-equilibriated maintenance media containing various concentrations of test compound. All conditions were performed at least in duplicate in each 96 well plate. The final volume for each well was always 200 µL. Following a 24 hour incubation, visual inspection of the cells was followed by quantification of neuronal cell death by measuring 3-[4,5-dimethylthiazol-2-yl]-2,5-diphenyltetrazolium bromide (MTT)-reductase activity as described previously (Malcolm et al., J. Neurochem. 1996, 66, 2350-2360).

Counter-ions that a name gives are not always drawn.

As for `COc1ccc2[nH]cc(CCNC(=O)CCn3ccc(=O)c(O)c3C)c2c1` [Example 1, 3-(1,4-Dihydro-3-hydroxy-2-methyl-4-oxo-1-pyridinyl)-N-(2-(5-methoxy-3-indolyl)ethyl)propanamide mesylate], the IC50 in assay [1] amounted to 1.5 µM. Moreover, a half-maximal effect in assay [2] (EC50) was put at 4.9 µM.
On the same counts, the results for `COc1ccc2[nH]cc(CCn3ccc(=O)c(O)c3C)c2c1` [Example 2, 3-Hydroxy-1-(2-(5-methoxy-3-indolyl)ethyl)-2-methyl-4(1H)-pyridinone] are 2 µM and 11.9 µM.

For orientation: IC50 means the midpoint of a concentration-inhibition curve. In general, EC50 refers to the concentration at which the effect is half-maximal. A high value points to a need for much substance.

The values are drawn from patent publication EP1006112A1, “3-Hydroxy-2(1H)-pyridinone or 3-hydroxy-4(1H)-pyridinone derivatives useful as reactive oxygen species (ROS) scavengers” (Cerebrus Pharmaceuticals Limited, priority 1998, dated 2000).
